These results are taken from US20070166336A1, “Stable and palatable oral liquid sumatriptan compositions” (priority 2005, published 2007).

Like-named read-outs stand apart in the source and are kept apart here.

One data set can be described thus: physchem. The following applies: thermodynamic from solid. The protocol: By apparent solubility is meant the solubility of the sumatriptan determined visually. The materials used were sumatriptan succinate and various reagents for preparation of the buffers. Hydrochloric acid was used for preparation of the pH 2 buffer, acetate for preparation of the pH 5 buffer, phosphate for preparation of the pH 7 buffer, and carbonate for the pH 9 buffer. The concentration of the buffers was 0.1 M.
A 1 mL aliquot of each buffer was placed in a glass scintillation vial. To this volume was added a small amount of sumatriptan. Each amount of sumatriptan was weighed on a balance. Weights typically ranged from between 5 and 35 mg. After each new addition of sumatriptan, the vial was shaken and visually inspected to determine if all of the sumatriptan was in solution. When small particles of undissolved sumatriptan appeared, no further amount of sumatriptan was added. These amounts of sumatriptan added before the final addition was added together and were listed as the lower limit of each pH. The upper limit of solubility was taken to be the sum total of sumatriptan added to the buffer when undissolved sumatriptan appeared. […] The diamond symbol in FIG. 1 represents the average value between the lower and upper limit.

Data set [1] can be described thus: Stability of sumatriptan succinate in water and buffers of pH 2, 5, 7, 9 (HPLC). It is filed as physicochemical. The following applies: buffers with a pH of about 2 to 5, one month at 50° C. (additional studies not presented).
Method: After mixing thoroughly, a 1 mL aliquot was removed for high performance liquid chromatography (HPLC) analysis. The remaining volume was then split into a glass tube to be kept at room temperature, and another glass tube to be kept at 50° C. Samples were pulled periodically from the 50° C. tubes for one month and analyzed by HPLC.
As used herein, degradation in percent area by area is that amount of degradation that is the ratio of the sum total of degradation peaks divided by the response factor (sumatriptan's standard curve slope value) multiplied by 100, and not a quantified amount of degradation.
Data set [2] is described as follows: Characterization of unknown oxidation impurity (LC-MS, HPLC). It is filed as physicochemical. The procedure:
HPLC conditions were the same as that for impurity C and D analysis, and the product peaks were injected into an electrospray ionization mass spectrometer.
To confirm whether oxidation of sumatriptan would lead to the formation of this impurity, sumatriptan succinate was incubated with 25% H2O2 for 2 hours and 24 hours followed by LC-MS analysis.
To test the presence of this impurity in sumatriptan succinate procured from different vendors, solid sumatriptan in powder form as well as sumatriptan dissolved in water were analyzed by HPLC.

Data set [3] can be described thus: Formulation at different pH: impurities after two weeks at 50° C. Format: physicochemical. The following applies: unbuffered (self-buffering). The procedure:
Sumatriptan succinate has a self-buffering capacity due to it being a succinic acid salt.
These formulations were kept on stability studies at 50° C. for two weeks.
Levels of each impurity are expressed as percentage (w/w) of sumatriptan, and RT is the retention time in minutes.

For data set [4] the following is noted: cited from earlier work.
The conditions of data set [5]: pH 5.
Method: The percent of sumatriptan recovered, i.e., the experimentally determined amount (mg/mL) of sumatriptan divided by the theoretical amount present at each stage, is also provided.
The final stage of the excipient screen was used to establish a compatible preservative. […] Specifically, Stage II samples were removed and split into two tubes each containing 2.5 mL and the remaining solution kept as a control. […] These solutions were then stored at 50° C. for one month and periodically analyzed by HPLC.
The stability and solubility of sumatriptan compositions in acetate buffer with the preservative was also tested. These samples were mixed in a 1:1 ratio.

As for `CNS(=O)(=O)Cc1ccc2[nH]cc(CCN(C)C)c2c1.O=C(O)CCC(=O)O` [Sumatriptan succinate, 3-[2-(dimethylamino)ethyl]-N-methyl-indole-5-methanesulfonamide succinate (1:1)], the solubility in the data set “physchem” (aqueous buffer, apparent solubility) is 100 to 115 mg/mL; in “physchem” (pH 2, simulated gastric fluid, Apparent solubility, Lower Limit), 149 mg/mL; in the data set “physchem” (pH 2, simulated gastric fluid, Apparent solubility, Upper Limit), 162 mg/mL; in “physchem” (pH 5, aqueous buffer, Apparent solubility, Lower Limit) it was 110 mg/mL; in the data set “physchem” (pH 5, aqueous buffer, Apparent solubility, Upper Limit) it was 120 mg/mL; in the data set “physchem” (pH 7, aqueous buffer, Apparent solubility, Lower Limit), 138 mg/mL. The solubility in the data set “physchem” (pH 7, aqueous buffer, Apparent solubility, Upper Limit) came out at 151 mg/mL; in “physchem” (pH 9, aqueous buffer, Apparent solubility, Lower Limit), 138 mg/mL; in the data set “physchem” (pH 9, aqueous buffer, Apparent solubility, Upper Limit), 140 mg/mL. The same compound yielded a degradation in data set [1] of 1.5%. Also, the “oxidation impurity (chromatogram)” value in data set [2] (25% v/v H2O2 solution at room temperature for 2 hours) is given as “formation of the oxidation impurity”; in data set [2] (solid powder at 4° C.) it was “not present”; in data set [2] (solid powder at 50° C.) it was “not present”. The “oxidation impurity (HPLC)” value in data set [2] (aqueous solution at 50° C. for two weeks) is listed as “formed upon incubation”. Moreover, the pH of solutions in data set [3] was 4.5-5. The bioavailability in data set [4] (6 mg subcutaneous injection) is recorded as 97%; in data set [4] (20 mg nasal spray) it was 17%. Moreover, the results for the Tmax in data set [4] (50 mg tablet), in data set [4] (nasal spray) and in data set [4] (subcutaneous injection) were 2.5 h, 1 h and 0.2 h, respectively. In addition, the elimination half-life entry in data set [4] (in vivo) is on record as “about 2 hours”. Also, the absolute bioavailability result in data set [4] (oral administration) is recorded as “about 14%”.
For HPMC, the “Percent Degradation After 1 month at 50° C.” value in data set [5] is recorded as 0.64%.
On the same count and under the same terms, the value for PEG 400 was 14%; that for Tween ™ 80 was 0.49%.
Same read-out and setting: the value for Xanthan Gum was 0.07%.

As usually defined, the solubility is how much of the substance goes into solution per volume. A word on the bioavailability: it is the share of a dose that reaches the circulation, judged against a reference dose that is usually intravenous. What is called Tmax is the time from dosing to the highest level.
